Activity calls are given as the source filed them.
Experiments:
Kallikrein-7 = Kallikrein-7 (Homo sapiens, UniProt P49862); assay: Fluorescence Intensity-based biochemical primary high throughput dose response assay to identify activators of kallikrein-7 (K7) zymogen.
[1] = viability inhibitors of stage V gametocytes – luminescence, dose response (AID 1117278); assay type: functional, cell-based;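 also: gametocytes exposed to compound for 24 hours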
[2] = viability loss in human Jurkat cells – cell-based, luminescence, cytotoxicity control for P. falciparum gametocyte viability project, dose response (AID 1117277); assay type: functional;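 also: potency reflects loss of cellular ATP meaning fewer viable cells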
[3] = molecular target: G-protein coupled receptor 183 (Homo sapiens, UniProt P32249); assay: SAR confirmation of small molecule antagonists of the EBI2 receptor via a luminescent beta-arrestin assa.; assay type: functional
[4] = Dd2 parasite growth inhibition in erythrocytes – SYBR Green, dry powder samples, set 9, dose response (AID 1159568); assay type: functional, cell-based
[5] = molecular target: T1, Oxysterols receptor LXR-beta (Homo sapiens, UniProt P55055); assay type: functional, cell-based;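 also: Cell-based luminescence dose-response assay of agonist activity at LXR, run as a confirmatory counterscreen to a daf-12 agonist screen; HEK293 cells with Gal4-LXR fusion and GAL4-driven luciferase reporter; agonist potency from rising luciferase signal of a Gal4-LXR reporter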
T1 sequence (P55055 whole entry): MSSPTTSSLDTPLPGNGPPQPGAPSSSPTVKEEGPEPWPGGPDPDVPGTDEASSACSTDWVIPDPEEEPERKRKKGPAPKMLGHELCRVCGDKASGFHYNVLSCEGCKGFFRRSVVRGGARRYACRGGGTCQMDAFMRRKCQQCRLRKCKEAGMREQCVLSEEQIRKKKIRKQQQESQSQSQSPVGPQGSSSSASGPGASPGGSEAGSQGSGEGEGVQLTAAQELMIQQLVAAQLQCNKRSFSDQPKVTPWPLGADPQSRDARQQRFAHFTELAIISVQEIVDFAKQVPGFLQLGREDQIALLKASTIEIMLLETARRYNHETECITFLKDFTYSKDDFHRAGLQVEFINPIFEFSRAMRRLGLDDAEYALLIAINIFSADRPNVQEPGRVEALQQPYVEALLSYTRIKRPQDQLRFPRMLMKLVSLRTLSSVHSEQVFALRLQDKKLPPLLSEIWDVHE

[6] = molecular target: T2, Sentrin-specific protease 8 (Homo sapiens, UniProt Q96LD8); assay type: functional;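 also: luminescence read-out of SENP8 inhibition, dose-response confirmation following an ultra-high-throughput screen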
T2 sequence (Q96LD8 whole entry): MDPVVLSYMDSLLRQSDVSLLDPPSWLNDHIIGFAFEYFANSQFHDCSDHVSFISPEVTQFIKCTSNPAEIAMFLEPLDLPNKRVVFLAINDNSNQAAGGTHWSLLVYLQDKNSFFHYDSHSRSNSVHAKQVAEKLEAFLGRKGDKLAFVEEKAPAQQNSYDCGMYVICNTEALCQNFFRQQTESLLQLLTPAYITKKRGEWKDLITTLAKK

[7] = molecular target: T3, Sentrin-specific protease 7 (Homo sapiens, UniProt Q9BQF6); assay type: functional;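 also: Luminescence-based dose-response confirmation of ultra-high-throughput screening hits, measuring inhibition of SENP7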
T3 sequence (Q9BQF6 whole entry): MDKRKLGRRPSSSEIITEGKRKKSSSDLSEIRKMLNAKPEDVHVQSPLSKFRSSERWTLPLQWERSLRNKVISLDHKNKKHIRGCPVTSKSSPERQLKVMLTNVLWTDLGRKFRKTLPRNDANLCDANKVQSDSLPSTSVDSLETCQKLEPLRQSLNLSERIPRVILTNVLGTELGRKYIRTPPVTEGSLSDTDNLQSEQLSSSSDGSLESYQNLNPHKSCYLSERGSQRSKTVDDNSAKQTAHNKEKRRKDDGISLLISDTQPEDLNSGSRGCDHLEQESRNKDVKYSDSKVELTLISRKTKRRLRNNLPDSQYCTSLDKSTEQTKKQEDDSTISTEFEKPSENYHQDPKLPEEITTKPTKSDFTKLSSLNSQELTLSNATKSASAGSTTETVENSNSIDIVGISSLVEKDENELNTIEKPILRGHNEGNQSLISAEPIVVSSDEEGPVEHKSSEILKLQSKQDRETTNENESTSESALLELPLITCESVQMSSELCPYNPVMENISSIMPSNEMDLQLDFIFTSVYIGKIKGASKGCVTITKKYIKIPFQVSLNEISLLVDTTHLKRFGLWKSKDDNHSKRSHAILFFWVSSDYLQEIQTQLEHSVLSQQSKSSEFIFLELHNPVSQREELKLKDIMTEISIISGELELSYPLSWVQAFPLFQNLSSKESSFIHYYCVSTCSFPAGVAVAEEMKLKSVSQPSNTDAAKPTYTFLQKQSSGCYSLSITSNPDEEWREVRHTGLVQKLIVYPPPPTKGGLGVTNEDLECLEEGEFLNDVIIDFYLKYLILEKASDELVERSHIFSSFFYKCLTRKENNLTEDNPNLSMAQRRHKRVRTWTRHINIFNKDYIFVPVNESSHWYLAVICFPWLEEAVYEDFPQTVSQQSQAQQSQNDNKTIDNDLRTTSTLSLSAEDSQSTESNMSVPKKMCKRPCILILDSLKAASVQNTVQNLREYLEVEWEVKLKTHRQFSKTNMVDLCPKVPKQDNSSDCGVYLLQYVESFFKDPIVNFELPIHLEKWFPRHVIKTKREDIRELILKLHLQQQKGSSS

[8] = molecular target: T4, Sentrin-specific protease 6 (Homo sapiens, UniProt Q9GZR1); assay type: functional;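 also: Luminescence-based dose-response confirmatory assay of SENP6 inhibition, following up an ultra-high-throughput screen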
T4 sequence (Q9GZR1 whole entry): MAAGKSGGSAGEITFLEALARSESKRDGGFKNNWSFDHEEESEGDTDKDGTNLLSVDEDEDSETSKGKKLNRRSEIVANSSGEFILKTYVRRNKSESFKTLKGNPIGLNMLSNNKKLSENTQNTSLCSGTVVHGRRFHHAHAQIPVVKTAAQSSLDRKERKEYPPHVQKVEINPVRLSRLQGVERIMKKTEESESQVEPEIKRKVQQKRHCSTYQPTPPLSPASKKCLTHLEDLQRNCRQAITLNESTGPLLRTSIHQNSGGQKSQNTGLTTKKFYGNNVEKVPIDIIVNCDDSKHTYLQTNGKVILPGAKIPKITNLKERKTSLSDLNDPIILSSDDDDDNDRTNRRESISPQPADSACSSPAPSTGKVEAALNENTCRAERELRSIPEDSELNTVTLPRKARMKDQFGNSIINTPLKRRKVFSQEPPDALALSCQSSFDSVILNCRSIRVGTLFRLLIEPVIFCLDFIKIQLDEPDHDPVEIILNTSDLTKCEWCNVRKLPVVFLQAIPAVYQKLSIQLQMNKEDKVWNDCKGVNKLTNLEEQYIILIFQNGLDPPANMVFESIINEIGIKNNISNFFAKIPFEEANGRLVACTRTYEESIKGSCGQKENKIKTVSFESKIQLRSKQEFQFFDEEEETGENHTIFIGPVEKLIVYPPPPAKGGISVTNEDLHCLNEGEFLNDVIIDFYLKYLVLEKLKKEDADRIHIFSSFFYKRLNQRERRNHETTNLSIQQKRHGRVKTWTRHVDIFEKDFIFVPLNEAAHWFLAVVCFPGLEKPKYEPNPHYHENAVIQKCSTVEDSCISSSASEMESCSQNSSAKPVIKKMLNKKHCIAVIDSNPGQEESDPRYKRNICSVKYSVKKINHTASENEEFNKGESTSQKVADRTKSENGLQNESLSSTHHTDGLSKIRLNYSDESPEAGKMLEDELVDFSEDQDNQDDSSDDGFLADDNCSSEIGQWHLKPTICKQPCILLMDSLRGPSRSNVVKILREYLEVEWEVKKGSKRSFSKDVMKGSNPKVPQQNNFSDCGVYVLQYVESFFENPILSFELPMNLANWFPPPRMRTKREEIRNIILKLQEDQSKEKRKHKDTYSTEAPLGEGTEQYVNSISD

Caspase-3 = molecular target: T5, Caspase-3 (Homo sapiens, UniProt P42574); assay type: functional;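 also: Dose-response selectivity test against caspase-3 for candidate inhibitors of sentrin-specific proteases (SENPs)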
T5 sequence (P42574 whole entry): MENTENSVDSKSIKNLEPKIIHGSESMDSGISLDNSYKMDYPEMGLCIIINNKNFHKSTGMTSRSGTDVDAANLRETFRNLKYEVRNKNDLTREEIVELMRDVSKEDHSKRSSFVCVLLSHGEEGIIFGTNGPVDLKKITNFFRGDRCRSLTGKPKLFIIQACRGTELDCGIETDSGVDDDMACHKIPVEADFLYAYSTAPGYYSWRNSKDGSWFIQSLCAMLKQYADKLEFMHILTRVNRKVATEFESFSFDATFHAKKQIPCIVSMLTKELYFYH

[9] = P. falciparum Dd2 growth inhibitors, dose response, SYBR Green, cherry-picked samples (AID 1159567); assay type: functional, cell-based
[10] = Dd2 malaria parasite growth inhibition potency – SYBR Green, dry powder samples, dose response (AID 1159566); assay type: functional, cell-based;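 also: potency for growth inhibition with lower SYBR green DNA signal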
[11] = toxicity to human HepG2 hepatoma cells – cell-based, plate reader, dry powder samples, cytotoxicity control, dose response (AID 1159569); assay type: functional;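 also: inhibitor potency with signal falling toward the positive control level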
[12] = growth inhibition of PfATP4-mutant resistant parasites – NITD609-resistant line, SYBR Green, dry powder, dose response (AID 1159571); assay type: functional, cell-based;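 also: parasites synchronized at ring stage by sorbitol before testing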
[13] = blockers of bursicon-stimulated LGR2 cAMP reporter – cell-based, HEK293, CRE-luciferase reporter, cherry pick, set 2, dose response (AID 743343); assay type: functional;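 also: transfected cells were stimulated with diluted bursicon conditioned medium after compound addition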
[14] = growth inhibition of yeast DHODH-expressing 3D7 parasites – SYBR Green, dry powder samples, dose response (AID 1159570); assay type: functional, cell-based;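 also: parasite growth measured after 72 hours of compound exposure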
[15] = A549 cell cytotoxicity, dose response, cytotoxicity control, plate reader, cherry-pick, antagonist series (AID 743412); assay type: functional, cell-based
[16] = blockade of melanocortin 4 receptor signaling – cell-based, plate reader, cherry pick, counter-screen for LGR2 antagonist project, dose response (AID 743444); assay type: functional;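 also: transfected HEK 293 cells stimulated with alpha-MSH peptide; potency of inhibitors of the alpha-MSH evoked signal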
[17] = reduced cellular PGC1a acetyl-lysine signal – cell-based, cherry-picked samples, dose response (AID 720514); assay type: functional;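 also: potency may reflect raised or lowered acetylation signal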
Paired box protein Pax-8 = Paired box protein Pax-8 (Homo sapiens, UniProt Q06710); assay: PAX8 transcriptional activity inhibition in RMG-I – RMG-I cells, luciferase, cherry-pick, dose response (AID 687027); assay type: functional, cell-based;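 also: luciferase reporter driven by Pax8 target thyroperoxidase promoter measured by SteadyGlo luminescence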
[18] = OVCAR8 cell viability loss – plate reader, dry powder samples, PAX8 project, dose response (AID 743197); assay type: functional, cell-based; details: OVCAR-8
[19] = OVCAR-3 cell viability loss – plate reader, dry powder samples, PAX8 inhibitor project, dose response (AID 743044); assay type: functional, cell-based
Streptokinase A = molecular target: T6, Streptokinase A (Streptococcus pyogenes serotype M1, UniProt P10520); assay: viability-normalized secreted streptokinase activity reduction – plasminogen activation absorbance, OD405, dose response (AID 1914); assay type: functional, Streptococcus pyogenes M1 GAS;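 also: secreted streptokinase activity via plasminogen activation per viability signal from cell pellet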
T6 sequence (P10520 whole entry): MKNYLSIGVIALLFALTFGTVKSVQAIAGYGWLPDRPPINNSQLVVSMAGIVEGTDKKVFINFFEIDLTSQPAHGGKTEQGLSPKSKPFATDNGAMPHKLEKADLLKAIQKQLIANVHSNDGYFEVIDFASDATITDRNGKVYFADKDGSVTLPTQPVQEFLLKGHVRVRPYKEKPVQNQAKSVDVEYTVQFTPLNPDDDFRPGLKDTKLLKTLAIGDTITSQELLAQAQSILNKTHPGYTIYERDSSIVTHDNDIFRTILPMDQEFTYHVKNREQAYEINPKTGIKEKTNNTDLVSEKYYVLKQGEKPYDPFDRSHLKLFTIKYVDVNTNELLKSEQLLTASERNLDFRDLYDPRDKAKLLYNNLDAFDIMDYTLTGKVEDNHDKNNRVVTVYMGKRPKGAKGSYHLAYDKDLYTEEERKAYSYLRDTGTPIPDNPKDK

Streptococcus = assay: GAS UMAA2166 growth inhibition – luminescence, BacTiterGlo, counter-screen for streptokinase expression inhibitor project, dose response (AID 1915); assay type: functional, organism-based;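 also: potency for reduction of bacterial viability or growth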
[20] = tested on: Streptococcus sp. 'group A'; assay: Streptococcus pyogenes SK(-)GAS viability under kanamycin – luminescence, BacTiterGlo, confirmation, counter-screen for streptokinase expression inhibitor project, dose response (AID 1900); assay type: functional, organism-based

Sequence of Kallikrein-7 (P49862 whole entry): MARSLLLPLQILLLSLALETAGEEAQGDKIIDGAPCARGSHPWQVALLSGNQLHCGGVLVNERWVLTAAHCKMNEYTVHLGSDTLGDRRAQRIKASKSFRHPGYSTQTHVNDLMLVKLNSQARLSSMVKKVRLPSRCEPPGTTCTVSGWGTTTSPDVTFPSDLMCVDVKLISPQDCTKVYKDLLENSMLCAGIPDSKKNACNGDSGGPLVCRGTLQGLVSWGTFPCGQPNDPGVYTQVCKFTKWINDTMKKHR
Sequence of G-protein coupled receptor 183 (P32249 whole entry): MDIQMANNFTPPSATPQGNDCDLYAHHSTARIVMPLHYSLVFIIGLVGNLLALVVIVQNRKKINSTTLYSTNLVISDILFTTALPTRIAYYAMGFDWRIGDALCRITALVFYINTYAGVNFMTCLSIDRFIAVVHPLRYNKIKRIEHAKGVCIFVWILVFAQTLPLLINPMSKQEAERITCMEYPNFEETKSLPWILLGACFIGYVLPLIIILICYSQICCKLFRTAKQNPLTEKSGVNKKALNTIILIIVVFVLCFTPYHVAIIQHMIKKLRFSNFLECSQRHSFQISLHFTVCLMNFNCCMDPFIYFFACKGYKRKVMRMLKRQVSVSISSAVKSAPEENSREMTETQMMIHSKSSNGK
Sequence of Paired box protein Pax-8 (Q06710 whole entry): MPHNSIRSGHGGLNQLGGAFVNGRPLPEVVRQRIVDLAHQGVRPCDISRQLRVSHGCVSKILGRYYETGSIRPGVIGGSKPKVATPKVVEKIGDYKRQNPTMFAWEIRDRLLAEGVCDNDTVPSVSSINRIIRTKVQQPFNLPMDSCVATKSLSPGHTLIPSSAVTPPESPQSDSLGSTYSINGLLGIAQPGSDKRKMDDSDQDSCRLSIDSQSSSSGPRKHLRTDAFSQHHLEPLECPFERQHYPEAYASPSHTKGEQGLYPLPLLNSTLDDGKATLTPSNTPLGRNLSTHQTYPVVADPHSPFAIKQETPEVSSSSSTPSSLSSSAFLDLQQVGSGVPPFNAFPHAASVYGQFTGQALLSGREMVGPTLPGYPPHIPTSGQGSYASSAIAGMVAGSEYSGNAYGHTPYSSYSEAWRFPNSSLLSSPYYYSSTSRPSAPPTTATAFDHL

## CN(C)CCNS(=O)(=O)c1ccc2c3c(cccc13)C(=O)N2
Kallikrein-7
  EC50: 1.83 µM (active)

## COc1cc(CCC(C)=O)ccc1OC(=O)c1c(F)cccc1Cl
[1]
  IC50: > 109 µM (inactive)
[2]
  IC50: > 83.2 µM (inactive)

## Cc1ccc(C(=O)N2CCN(C(=O)/C=C/c3ccc(Br)cc3)CC2)cc1
[3]
  IC50: 1.02 nM (active)

## C[C@@H]1CN([C@H](C)CO)C(=O)c2cccc(NC(=O)c3ccc(-c4nccs4)cc3)c2O[C@@H]1CN(C)C(=O)Nc1ccc(C(F)(F)F)cc1
[4]
  AC50: 886 nM (active)

## CCOC(=O)/C(=N\Nc1ncnc2ccccc12)c1ccc(C)cc1
[5]
  EC50: > 67.6 µM (inactive)
[6]
  IC50: 13.4 µM (active)
[7]
  IC50: 6.78 µM (active)
[8]
  IC50: 11.7 µM (active)
cells
  EC50: > 67.6 µM (inactive)
Caspase-3
  IC50: 32.9 µM (active)

## COc1ccccc1C(=O)NC(=O)Nc1cccc(Cl)c1
[5]
  EC50: > 67.5 µM (inactive)
cells
  EC50: > 67.5 µM (inactive)

## O=C(/C=C/c1ccc(F)cc1)N1CCN(S(=O)(=O)c2ccccc2Br)CC1
[3]
  IC50: 8.01 nM (active)

## CCOC(=O)N1CCC2(CC1)CC(=O)c1c(ccc3oc(C(=O)O)c(C)c13)O2
Kallikrein-7
  EC50: 97.5 µM (inactive)

## C[C@H](CO)N1C[C@H](C)[C@H](CN(C)S(=O)(=O)c2ccc(C(F)(F)F)cc2)OCc2ccccc2-c2c(n(C)c3ccccc23)C1=O
[9]
  AC50: 427 nM (active)
[10]
  AC50: 117 nM (active)
[11]
  AC50: 25.7 µM (active)
[12]
  AC50: 152 nM (active)
[13]
  AC50: 27.3 µM (active)
[14]
  AC50: 155 nM (active)
[15]
  AC50: 19.8 µM (active)
[4]
  AC50: 293 nM (active)
[16]
  AC50: 28.9 µM (active)

## Cc1ccc(S(=O)(=O)N(C)C[C@@H]2Oc3cc(C#Cc4ccncc4)ccc3S(=O)(=O)N([C@H](C)CO)C[C@H]2C)cc1
[17]
  AC50: 3.54 µM (active)
Paired box protein Pax-8
  AC50: 3.3 µM (active)
[18]
  AC50: > 70 µM (inactive)
[19]
  AC50: 3.13 µM (active)

## O=C1Nc2ccccc2N=C(c2ccccc2)C1N(Cc1ccc(F)cc1)C(=O)c1cccnc1 (centres undefined)
[17]
  AC50: 36.7 µM (active)

## Cc1ccc(C)n1-c1sc2c(c1C#N)CCC(C)C2 (centres undefined)
[1]
  IC50: > 109 µM (inactive)
Streptokinase A
  EC50: 14.6 µM (active)
Streptococcus
  EC50: > 150 µM (not active)
[2]
  IC50: > 83.3 µM (inactive)
[20]
  EC50: 7.14 µM (active)

Source: ChEMBL document CHEMBL1201862, “PubChem BioAssay data set” (2004)
